Where “and” joins values, the source holds several entries; their conditions need not be identical. Equal values may be shown once. Read-outs that look alike come from different tables or passages of the source.
Tests used:
[1] = molecular target: T1, Human HSP90 alpha (Homo sapiens, UniProt P07900); assay: Assay for the activity of inhibiting HSP90 enzyme (ATPase, malachite green); type: biochemical; details: purified human HSP90 alpha, 1 mM ATP added, 37° C. for two hours, OD655
T1 construct: His tag (inferred from purification on a HisPrep FF column); made in house; host or cells: E. coli BL21 codon plus (Stratagene)
Method: Introduction of pETHuHSP90a into E. coli (BL21 codon plus; Stratagene) was followed by O/N incubation in the presence of 0.1 mM IPTG, and the collected E. coli cells were disrupted by ultrasonication in a Lysis buffer (50 mM Tris-HCl (pH8.0), 10 mM MgCl2, 0.1% Triton X-100, Protease inhibitor cocktail tablets (Roche Diagnostics)). The cell lysate solution was centrifuged (10,000 rpm×30 minutes), and the supernatant obtained after centrifugation was used as a crude extract. The crude extract was fractionated using HisPrep FF column and HiTrap Q column (Amersham) to prepare a purified enzyme solution.
An enzyme solution for assays was prepared by dilution of the purified enzyme solution using an assay buffer (50 mM Tris HCl pH7.6, 20 mM KCl, 5 mM MgCl2).
10 μL each of various concentrations of the test substances (10% DMSO solution) was added to each well, and for the positive control wells, 10 μL of 10% DMSO was added. 10 μL of 10% DMSO was also added to the negative control well.
10 μL of 1 mM ATP was added to all of the wells, and the reaction was carried out at 37° C. for two hours.

[2] = system: HCT116 cells; assay: Measurement of cell growth inhibition (Cell Counting Kit-8, four days); details: Homo sapiens, HCT-116, 96 h, read-out: Cell growth-inhibiting activity (IC50, μM) Colon cancer HCT116, HCT116 colon cancer cell line, four days culture;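 note: cells exposed to a range of test concentrations at 37 °C in 5% CO2 for four days, then growth read as absorbance with Cell Counting Kit-8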
Method: Cells were maintained under conditions recommended by the provider of each cell line. Cells suspended in a medium were added to solutions containing various concentrations of the test substance, and the cells were cultured at 37° C. in a 5% CO2 incubator. Four days later, Cell Counting Kit-8 was added, and absorbance measurements were taken following the protocol included in the kit.

[3] = read-out: Enzyme-inhibiting activity (IC50, μM) Human HSP90α

IC50 [1, 3] | IC50 [2] [µM] | Structure (SMILES) | IC50 ([1]; Enzyme-inhibiting activity (IC50, μM) Human HSP90α)
0.8 µM | > 10 | Cc1cc(C)c2cc1C(=O)NCCC[C@@H](C(=O)NCC(O)CO)NC(=O)CCSc1cc-2nc(N)n1 (stereo partly drawn) [Compound 48, (S)-4-amino-19,21-dimethyl-10,17-dioxo-7-thia-3,5,11,16-tetraazatricyclo[16.3.1.1^2,6]tricosa-1(21),2,4,6(23),18(22),19-hexaene-12-carboxylic acid (2,3-dihydroxypropyl) amide] | –
1.1 µM | > 10 | Cc1cc(C)c2cc1C(=O)NCCC[C@@H](C(=O)NCCO)NC(=O)CCSc1cc-2nc(N)n1 [Compound 46, (S)-4-amino-19,21-dimethyl-10,17-dioxo-7-thia-3,5,11,16-tetraazatricyclo[16.3.1.1^2,6]tricosa-1(21),2,4,6(23),18(22),19-hexaene-12-carboxylic acid (2-hydroxyethyl)amide] | –
1.6 µM | – | COc1cc(C)c2cc1C(=O)NCCCOc1cccc(c1)Sc1cc-2nc(N)n1 [Compound 16, 4-amino-20-methoxy-22-methyl-13-oxa-7-thia-3,5,17-triazatricyclo[17.3.1.1^2,6.1^8,12]pentacosa-1(22),2(24),3,5,8(25),9,11,19(23),20-nonaen-18-one] | –
1.8 µM | 0.5 | Cc1cc(C)c2cc1C(=O)NCCN(C)CCNC(=O)CCSc1cc-2nc(N)n1 [Compound 30, 4-amino-14,20,22-trimethyl-7-thia-3,5,11,14,17-pentaazatricyclo[17.3.1.1^2,6]tetracosa-1(22),2(24),3,5,19(23),20-hexaene-10,18-dione] | –
2.3 µM | 5.7 | CC(=O)NC1CCNC(=O)c2cc(c(C)cc2C)-c2cc(nc(N)n2)SCCNC1=O (stereo not drawn) [Compound 74, N-(4-amino-18,20-dimethyl-10,16-dioxo-7-thia-3,5,10,15-tetraazatricyclo[15.3.1.1^2,6]docosa-1(20),2(22),3,5,17(21),18-hexaen-12-yl)acetamide] | –
1.1 µM | > 10 | COc1cc(C)c2cc1C(=O)N(C)CCCC(=O)NCCSc1cc-2nc(N)n1 [Compound 10, 4-amino-18-methoxy-15,20-dimethyl-7-thia-3,5,10,15-tetraazatricyclo[15.3.1.1^2,6]docosa-1(20),2(22),3,5,17(21),18-hexaene-11,16-dione] | –
2.5 µM | > 10 | COCCNC(=O)[C@@H]1CCNC(=O)CCSc2cc(nc(N)n2)-c2cc(c(C)cc2C)C(=O)N1 [Compound 66, (S)-4-amino-18,20-dimethyl-10,16-dioxo-7-thia-3,5,11,15-tetraazatricyclo[15.3.1.1^2,6]docosa-1(20),2(22),3,5,17(21),18-hexaene-14-carboxylic acid (2-methoxyethyl) amide] | –
2.8 µM | 0.2 | COC(=O)[C@@H]1CCNC(=O)CCSc2cc(nc(N)n2)-c2cc(c(C)cc2C)C(=O)N1 [Compound 63, (S)-4-amino-18,20-dimethyl-10,16-dioxo-7-thia-3,5,11,15-tetraazatricyclo[15.3.1.1^2,6]docosa-1(20),2(22),3,5,17(21),18-hexaene-14-carboxylic acid methyl ester] | –
1.9 µM | 0.5 | Cc1cc(C)c2cc1C(=O)NCCC(NC(=O)C(F)(F)F)C(=O)NCCSc1cc-2nc(N)n1 (stereo not drawn) [Compound 75, N-(4-amino-18,20-dimethyl-11,16-dioxo-7-thia-3,5,10,15-tetraazatricyclo[15.3.1.1^2,6]docosa-1(20),2(22),3,5,17(21),18-hexaen-12-yl)-2,2,2-trifluoroacetamide] | –
2.2 µM | 1 | Cc1cc(C)c2cc1C(=O)NCC1(CNC(=O)CCSc3cc-2nc(N)n3)COC1 [Compound 72] | –
3.3 µM | 7.4 | Nc1nc2nc(n1)-c1cc(c(Cl)cc1Cl)OCCCCOc1cccc(c1)S2 [Compound 26, 20,22-dichloro-13,18-dioxa-7-thia-3,5,24-triazatricyclo[17.3.1.1^2,6.1^8,12]pentacosa-1(22),2(24),3,5,8(25),9,11,19(23),20-nonaen-4-ylamine] | –
1.6 µM | 0.14 | Nc1nc2cc(n1)-c1cc(c(Cl)cc1Cl)C(=O)NCCCC(=O)NCCS2 [Compound 15, 4-amino-18,20-dichloro-7-thia-3,5,10,15-tetraazatricyclo[15.3.1.1^2,6]docosa-1(20),2(22),3,5,17(21),18-hexaene-11,16-dione] | –
1.3 µM | – | CCOc1cc(C)c2cc1C(=O)NCCCOc1cccc(c1)Sc1cc-2nc(N)n1 [Compound 17, 4-amino-20-ethoxy-22-methyl-13-oxa-7-thia-3,5,17-triazatricyclo[17.3.1.1^2,6.1^8,12]pentacosa-1(22),2(24),3,5,8(25),9,11,19(23),20-nonaen-18-one] | –
2.9 µM | 3.2 | COC(=O)[C@H]1CCNC(=O)c2cc(c(C)cc2C)-c2cc(nc(N)n2)SCCC(=O)N1 [Compound 69, (R)-4-amino-18,20-dimethyl-10,16-dioxo-7-thia-3,5,11,15-tetraazatricyclo[15.3.1.1^2,6]docosa-1(20),2,4,6(22),17(21),18-hexaene-12-carboxylic acid methyl ester] | –
3 µM | 0.4 | Cc1cc(C)c2cc1C(=O)NCCCC(=O)N(CCO)CCSc1cc-2nc(N)n1 [Compound 79, 4-amino-10-(2-hydroxyethyl)-18,20-dimethyl-7-thia-3,5,10,15-tetraazatricyclo[15.3.1.1^2,6]docosa-1(20),2(22),3,5,17(21),18-hexaene-11,16-dione] | –
1.6 µM | 0.92 | Cc1cc(C)c2cc1C(=O)N(C)CCCNC(=O)CCSc1cc-2nc(N)n1 [Compound 3, 4-amino-15,18,20-trimethyl-7-thia-3,5,11,15-tetraazatricyclo[15.3.1.1^2,6]docosa-1(20),2(22),3,5,17(21),18-hexane-10,16-dione] | –
4.3 µM and 6.2 µM | 5 | Cc1cc(C)c2cc1C(=O)NCCC(NC(=O)[C@H](N)C(C)C)C(=O)NCCSc1cc-2nc(N)n1 (stereo partly drawn) [Compound 76] | –
2.9 µM | 9.1 | Cc1cc(C)c2cc1C(=O)NCC[C@@H](CN1CCOCC1)NC(=O)CCSc1cc-2nc(N)n1 [Compound 71, (S)-4-amino-18,20-dimethyl-12-morpholin-4-ylmethyl-7-thia-3,5,11,15-tetraazatricyclo[15.3.1.1^2,6]docosa-1(20),2(22),3,5,17(21),18-hexaene-10,16-dione] | –
1.8 µM | – | Nc1nc2cc(n1)-c1cc(c(Cl)cc1Cl)OCCCCOc1cccc(c1)S2 [Compound 21, 4-amino-20,22-dichloro-13,18-dioxa-7-thia-3,5-diazatricyclo[17.3.1.1^2,6.1^8,12]pentacosa-1(23),2,4,6(24),8,10,12(25),19,21-nonaene] | –

Structure (SMILES) | IC50 [1, 3] | IC50 [2] [µM] | IC50 ([1]; Enzyme-inhibiting activity (IC50, μM) Human HSP90α)
Cc1cc(C)c2cc1C(=O)NCCC(NC(=O)[C@H](N)Cc1ccc(O)cc1)C(=O)NCCSc1cc-2nc(N)n1 (stereo partly drawn) [Compound 77] | – | 6.5 | 5 µM and 3.4 µM
Cc1cc(C)c2cc1C(=O)NCCNC(=O)CCCSc1cc-2nc(N)n1 [Compound 4, 4-amino-18,20-dimethyl-7-thia-3,5,12,15-tetraazatricyclo[15.3.1.1^2,6]docosa-1(20),2(22),3,5,17(21),18-hexaene-11,16-dione] | 1 µM | – | –
Cc1cc(C)c2cc1C(=O)NCCCC(=O)NCCSc1cc-2nc(N)n1 [Compound 11, 4-amino-18,20-dimethyl-7-thia-3,5,10,15-tetraazatricyclo[15.3.1.1^2,6]docosa-1(20),2(22),3,5,17(21),18-hexaene-11,16-dione] | 1.2 µM | – | –

Source: patent publication US8362236B2, “Macrocyclic compound” (Chugai Seiyaku Kabushiki Kaisha, priority 2007, dated 2013)
